Assay results from patent US9140692B1, “Methods of identifying glycopeptides recognized by disease-associated auto-antibodies” (Glycozym, Inc., priority 2010, dated 2015).
Entries after “also recorded” stand apart in the source; their conditions may differ.

system: human IgG antibodies (cancer-associated auto-antibodies in serum); assay: Glycopeptide microarray screening of the 96 paired peptide/GalNAc-glycopeptide library with human sera; assay type: binding; settings: serum of newly diagnosed prostate cancer patient #762, 1:25 dilution, labeled anti-human IgG; FIG. 2
Text: A panel of human sera was obtained from CHTN (Cooperative Human Tissue Network) and Asterand Inc., under the guidelines of approved agreements by the providers. Sera obtained were from control individuals (“normal”) (n=31) and from newly diagnosed cancer patients (n=147) with pancreatic, breast, colon, lung, prostate or ovary primary cancers. Briefly, for cancer sera, all blood samples were obtained on or near date of diagnosis, and serum was processed immediately, flash frozen and stored at −70° C. until shipment. Serum samples received from the providers as frozen aliquots generally of 1-2 mL were brought to room temperature, vortexed and distributed into 20-100 μL aliquots in closeable Eppendorf tubes (vWR) (pre-labeled), and immediately frozen and stored at −70° C. until use.
Glycopeptides (20-mers with and without a single GalNAc residue at position 12) and control structures (corresponding unglycosylated peptides) were printed on Corning (Corning, N.Y.), Scienion (Germany) or Schott Nexterion® Slide H or Schott Nexterion® Slide H MPX 16 (Schott AG, Mainz, Germany) by JPT (Germany). Triplicates or quadruplicates of all compounds were printed at optimal concentrations (1-50 μM) or 50× excess relative to scale of synthesis for spot-synthesized glycopeptides printed without purification. After printing, slides were incubated for 1 hour (h) in a humidified hybridization chamber with 70-100% relative humidity and stored until use at 4° C. Unspotted slide areas were blocked for 1 h with 25 mM ethanolamine in 100 mM sodium borate pH 8.5. If an enzyme step was needed either to increase sites of GaLNac attachments in peptides or extend O-glycans to T, STn, core 3 or other structures, addition of the enzyme reaction mixture in 25-35 μL was made in appropriate wells and the slide incubated at 37° C. for 1 h, after which it was washed in PBS/0.05% Tween and then PBS, and then spun dry.
Human sera (usually diluted 1:25), monoclonal antibodies, lectins and the like were added in 25 μL and the slide left at room temperature for 2 h in a moist, humid chamber after which it was washed as above and spun dry (if no superstructure). Secondary antibodies were added at appropriate concentrations (for human sera, usually 1:1500 for anti-human IgG with a Cy3 chromophore). In some cases, for some controls, lectin-Cy3 was used directly as final step. The final step was washing as above, with a brief de-ionized water wash and the slide spun dry for scanning Analysis was made on a GenePix 4200AL Scanner at PMT 400 and power mode 10-50. Data were analyzed and plotted using Microsoft Excel.
Glycopeptides (20-mers with and without a single GalNAc residue at position 12) were printed in triplicates (horizontal) on Scineon 16-well slides by JPT (Germany) and bound human IgG antibodies detected by a labeled secondary anti-human IgG antibody. FIG. 2 illustrates examples of reactivities of serum (1:25 dilution) from a newly diagnosed prostate cancer patient (#762 in Panel A) and a normal control serum from a healthy individual (#174 in Panel B) on the library of 96 paired peptides/GalNAc-glycopeptides as designated in Table II. Candidate cancer-associated IgG antibodies identified in the cancer serum directed to GalNAc glycopeptide epitopes are indicated by open circles labeled 20/21, 62/63, and 86/87 for the paired peptide and GalNAc glycopeptides, respectively. […]
FIG. 4 illustrates results of screening 147 cancer sera and 31 normal sera on the glycopeptide pair #62/63. FIG. 5 illustrates results of screening 147 cancer sera and 31 normal sera on the glycopeptide pair #86/87.

| Substance | reactivity of serum IgG antibodies with printed peptide/GalNAc-glycopeptide |
| --- | --- |
| TPTPKEKPEAGTYSVNNGND [Peptide 62, derived from LAMP2] | do not react; also recorded: not the corresponding peptide |
| TPTPKEKPEAGTYSVNNGND [Peptide 63, derived from LAMP2] | specifically reacting; also recorded: labels |
| SHHSDESDELVTDFPTDLPA [Peptide 20, derived from SPP1] | do not react; also recorded: not the corresponding peptide |
| SESFPHPGFNMSLLENHTRQ [Peptide 87, derived from KLK1] | specifically reacting; also recorded: labels |
| SHHSDESDELVTDFPTDLPA [Peptide 21, derived from SPP1] | specifically reacting; also recorded: labels |
| SESFPHPGFNMSLLENHTRQ [Peptide 86, derived from KLK1] | do not react; also recorded: not the corresponding peptide |

system: human IgG antibodies from cancer patients; assay: Microarray screening of the larger GalNAc O-glycopeptide library (Table III) with human cancer and control sera; assay type: binding; settings: FIG. 6; sera at 1:20 dilution, anti-human-IgG Cy3
Text: FIG. 6A: glycopeptides 889 (SEQ ID NO: 134), 275a (SEQ ID NO: 86), and 585 (SEQ ID NO: 109). FIG. 6B: glycopeptides 893 (SEQ ID NO: 135), 931-C3 (SEQ ID NO: 146), and 852-C3 (SEQ ID NO: 145). FIG. 6C: gycopeptides 873 (SEQ ID NO: 132) and 690 (SEQ ID NO: 116). The following human sera were used for FIGS. 6A and 6B: 32 ovarian cancer (O), 38 breast cancer (B), 54 colon cancer (C), 17 lung cancer (L), as well as 145 normal sera (N) (Asterand Corp). The following sera were used for FIG. 6C: 32 ovarian cancer (O), 38 breast cancer […], 54 colon cancer (C), 42 lung cancer (L), 52 pancreactic cancer (Pn), 35 prostatic cancer (Pr), 8 inflammatory disease (In), 8 benign controls (Bn), and 145 healthy controls (N). Sera were screened at 1:20 dilution. Anti-human-IgG conjugated to Cy3 was used as the secondary detection unit and slides were scanned with a GenePix 4200AL Microarray Scanner.
A larger library of GalNAc O-glycopeptides designed with GalNAc linked to serine or threonine at position 12 in 20-mer peptides was produced as described in Example 1. Peptides were selected among cell membrane and secreted human proteins that contain serine and threonine residues that are predicted to be O-glycosylated by the NetOGlyc algorithm (Julenius et al. 2005). A total of 960 GalNAc glycopeptides were synthesized at 0.5 mg scale (Sigma) and printed on microarray hydrogel slides (Schott Nexterion) as described in Example 1. Slides were reacted with human cancer sera (ovarian, breast, colon, lung, pancreas, prostate, 235 total sera) and control sera (145 healthy, 20 inflammatory, 20 benign tumor). Glycopeptides preferentially reactive with human IgG antibodies from cancer patients compared to controls were selected for resynthesis at 5 mg scale with amidated C-terminus (New England Peptide (Gardner, Mass.) (Table III). Resynthesized glycopeptides were reprinted on microarray slides at 50 μM and reacted with human cancer sera (Total 286 sera: 32 ovarian cancer (O), 38 breast cancer (B), 54 colon cancer (C), 17 lung cancer (L), and 145 age and sex matched control normal sera as described in Example 1. Table III lists glycopeptides exclusively or preferentially reactive with human IgG from cancer patients compared to controls and examples of reactivities are shown in FIG. 6.
Since IgG antibodies reactive with glycopeptides epitopes recognize both the peptide sequence in close proximity to the O-glycan (i.e., one to five or even eighth residues N- and C-terminal of the O-glycan) as well as the O-glycan structure, it is clear that different glycoforms of one glycopeptide may be recognized by different IgG antibodies and these antibodies may be found in different cancer patients. In this Example, GalNAc-glycopeptides from MUC1 and MUC4 were also produced as the core 3 GlcNAcβ1-3GalNAcα1-O-Ser/Thr glycoform with a recombinant core 3 synthase as described in Example 1.

| Substance | reactivity with IgG from newly diagnosed cancer patients compared to normal control sera |
| --- | --- |
| H2N-SLASQATDIFST[GlcNAc] VPPTPPSI-amide [Peptide 931-C3] | reactive with IgG from newly diagnosed cancer patients |
| H2N-HDVETQFNQYKTEAASRYNL-amide (H-HDVETQFNQYKTEAASRYNL-NH2; also: O-GalNAc glycopeptide, sites not given here) [Peptide 889] | reactive with IgG from newly diagnosed cancer patients |
| H2N-VPVTRPALGSTT[GlcNAc] PPAHDVTS-amide (H-VPVTRPALGSTTPPAHDVTS-NH2; not fully specified (residue 12)) [Peptide 852-C3] | reactive with IgG from newly diagnosed cancer patients |
| H2N-TKTDASSTHHSTVPPLTSSN-amide (H-TKTDASSTHHSTVPPLTSSN-NH2; also: O-GalNAc glycopeptide, sites not given here) [Peptide 873] | reactive with IgG from newly diagnosed cancer patients |
| H2N-ASRYNLTISDVSVSDVPFPF-amide (H-ASRYNLTISDVSVSDVPFPF-NH2; also: O-GalNAc glycopeptide, sites not given here) [Peptide 893] | reactive with IgG from newly diagnosed cancer patients |
| H2N-LAKMYYSAVEPTKDIFTGLI-amide (H-LAKMYYSAVEPTKDIFTGLI-NH2; also: O-GalNAc glycopeptide, sites not given here) [Peptide 275a] | reactive with IgG from newly diagnosed cancer patients |
| H2N-PGTSTTPSQPNSAGVQDTEM-amide (H-PGTSTTPSQPNSAGVQDTEM-NH2; also: O-GalNAc glycopeptide, sites not given here) [Peptide 690] | reactive with IgG from newly diagnosed cancer patients |
| H2N-TDCGGPKDHPLTCDDPRFQA-amide (H-TDCGGPKDHPLTCDDPRFQA-NH2; cysteine pairing not given here; also: O-GalNAc glycopeptide, site not shown) [Peptide 585] | reactive with IgG from newly diagnosed cancer patients |

same assay, conditions: resynthesized glycopeptides printed at 50 μM; cancer sera and 145 control normal sera

| Substance | reactivity with human IgG from cancer patients compared to controls |
| --- | --- |
| H2N-SLASQATDIFST[GlcNAc] VPPTPPSI-amide [Peptide 931-C3] | exclusively recognized by IgG antibodies in sera from cancer patients |
| H2N-VPVTRPALGSTT[GlcNAc] PPAHDVTS-amide (H-VPVTRPALGSTTPPAHDVTS-NH2; not fully specified (residue 12)) [Peptide 852-C3] | exclusively recognized by IgG antibodies in sera from cancer patients |
